Test results published in patent publication US20260271931A1, “HERBICIDAL MIXTURES” (Bayer Aktiengesellschaft, priority 2023, published 2026).
Read-outs that look alike come from different tables or passages of the source.

Tests used:
Type in all cases: in vivo
[1] = system: Avena fatua (AVEFA); assay: Post-emergence action against weeds, greenhouse pot test, visual rating: Avena fatua; conditions: for pest or weed control at 4 g/ha: 4 g a.i./ha
[2] = system: Bidens pilosa (BIDPI); assay: Post-emergence action against weeds, greenhouse pot test, visual rating: Bidens pilosa
[3] = system: Brachiaria platyfylla (BRAPP); assay: Post-emergence action against weeds, greenhouse pot test, visual rating: Brachiaria platyfylla
Protocol: (§1) When the observed efficacies already exceed the formal sum total of the values of the tests with individual applications, they also exceed the expected value according to Colby, which is calculated using the formula below and is likewise regarded as an indication of synergism (cf. S. R. Colby; in Weeds 15 (1967) pp. 20 to 22):
(§2) where: • A=efficacy of the active ingredient (A) in % at an application rate of a [g a.i./ha]; • B=efficacy of the active ingredient (B) in % at an application rate of b [g a.i./ha]; • E^C=expected value of the effect of the combination (A)+(B) in % at the combined application rate a+b [g a.i./ha].
(§3) The observed values (E^A) from the experiments, given suitable low dosages, show an effect of the combinations exceeding the expected values according to Colby (E^C) (Δ).
(§4) Seeds of mono- and dicotyledonous weeds were placed in sandy loam in pots, covered with soil and grown in a greenhouse under good growth conditions (temperature, air humidity, water supply). Two to three weeks after sowing, the test plants were treated at the two- to four-leaf stage with the compositions of the invention. The compositions of the invention, formulated as spray powders or as emulsion concentrates, were sprayed onto the green parts of the plant in various dosages with an application rate equivalent to […] of water. After the test plants had been kept in the greenhouse under optimum growth conditions for 3 weeks, the activity of the preparations was rated visually in comparison to untreated controls.
(§5) 100% efficacy means complete control of the particular weed tested.
(§6) 0% efficacy means zero control of the particular weed tested.
(§7) Expected values according to Colby are reported under E.
(§8) The exceedance of the expected value E is given as Δ (=synergistic effect).
(§9) The rating period is reported in days after application (DAT).

[4] = system: Centaurea cyanus (CENCY); assay: Post-emergence action against weeds, greenhouse pot test, visual rating: Centaurea cyanus
Protocol: as §1, §2, §3, §4, §5, §6, §7, §8, §9

[5] = system: Echinochloa crus-galli (ECHCG); assay: Post-emergence action against weeds, greenhouse pot test, visual rating: Echinochloa crus-galli
[6] = system: Eleusine indica (ELEIN); assay: Post-emergence action against weeds, greenhouse pot test, visual rating: Eleusine indica
Protocol: as §1, §2, §3, §4, §5, §6, §7, §8, §9

[7] = system: Kochia scoparia (KCHSC); assay: Post-emergence action against weeds, greenhouse pot test, visual rating: Kochia scoparia
[8] = system: Lolium rigidum (LOLRI); assay: Post-emergence action against weeds, greenhouse pot test, visual rating: Lolium rigidum
[9] = system: Pharbitis purpurea (PHBPU); assay: Post-emergence action against weeds, greenhouse pot test, visual rating: Pharbitis purpurea
Protocol: as §1, §2, §3, §4, §5, §6, §7, §8, §9

[10] = system: Sorghum halepense (SORHA); assay: Post-emergence action against weeds, greenhouse pot test, visual rating: Sorghum halepense; conditions: 50 g a.i./ha
Protocol: as §1, §2, §3, §4, §5, §6, §7, §8, §9

[11] = Avena fatua, 240 h, 10 DAT, read-out: Herbicidal effect [%] on AVEFA 10 DAT
[12] = Eleusine indica, post-emergence, 240 h, 50 g a.i./ha, read-out: Herbicidal effect [%] on ELEIN 10 DAT
[13] = Eleusine indica, post-emergence, 504 h, 50 g a.i./ha, read-out: Herbicidal effect [%] on ELEIN 21 DAT
[14] = Bassia scoparia, post-emergence, 504 h, read-out: Herbicidal effect [%] on KCHSC 21 DAT

CCc1cccc(C)c1N(C(=O)CCl)[C@@H](C)COC [S-Metolachlor, S-metolachlor]
Herbicidal effect [%] on AVEFA 10 DAT ([1]; 10 DAT, 50 g a.i./ha): 10% | Herbicidal effect [%] on BIDPI 21 DAT ([2]; 50 g a.i./ha): 20% | Herbicidal effect [%] on BRAPP 10 DAT ([3]; 50 g a.i./ha): 30% | Herbicidal effect [%] on BRAPP 21 DAT ([3]; 50 g a.i./ha): 30% | Herbicidal effect [%] on CENCY 10 DAT ([4]; 50 g a.i./ha): 0% | Herbicidal effect [%] on CENCY 21 DAT ([4]; 50 g a.i./ha): 10% | Herbicidal effect [%] on ECHCG 21 DAT ([5]; 50 g a.i./ha): 30% | Herbicidal effect [%] on ELEIN 10 DAT ([6]; 50 g a.i./ha): 10% | Herbicidal effect [%] on ELEIN 21 DAT ([6]; 50 g a.i./ha): 10% | Herbicidal effect [%] on KCHSC 21 DAT ([7]; 50 g a.i./ha): 10% | Herbicidal effect [%] on LOLRI 21 DAT ([8]; 50 g a.i./ha, 21 DAT): 0% | Herbicidal effect [%] on PHBPU 21 DAT ([9]; 50 g a.i./ha): 10% | Herbicidal effect [%] on SORHA 10 DAT ([10]; 10 DAT): 10% | Herbicidal effect [%] on SORHA 21 DAT ([10]; 21 DAT): 10%

CS(=O)(=O)c1ccc(C(=O)C2C(=O)CCCC2=O)c([N+](=O)[O-])c1 [Mesotrione, mesotrione]
pest or weed control at 4 g/ha [1, 11]: 10% | pest or weed control at 4 g/ha ([3]; post-emergence, 504 h, 4 g a.i./ha, read-out: Herbicidal effect [%] on BRAPP 21 DAT): 0% | Herbicidal effect [%] on CENCY 21 DAT ([4]; 4 g a.i./ha): 40% | pest or weed control at 4 g/ha ([6]; Eleusine indica, post-emergence, 504 h, 4 g a.i./ha, read-out: Herbicidal effect [%] on ELEIN 21 DAT): 10% | Herbicidal effect [%] on KCHSC 10 DAT ([7]; 4 g a.i./ha): 30% | pest or weed control at 4 g/ha ([8]; Lolium rigidum, 504 h, 4 g a.i./ha, 21 DAT, read-out: Herbicidal effect [%] on LOLRI 21 DAT): 0%

CCS(=O)(=O)c1cccnc1S(=O)(=O)NC(=O)Nc1nc(OC)cc(OC)n1 [Rimsulfuron, rimsulfuron]
Herbicidal effect [%] on AVEFA 21 DAT ([1]; 21 DAT, 0.9 g a.i./ha): 50% | pest or weed control at 0.9 g/ha ([1]; Avena fatua, 240 h, 10 DAT, 0.9 g a.i./ha, read-out: Herbicidal effect [%] on AVEFA 10 DAT): 60% | Herbicidal effect [%] on ECHCG 21 DAT ([5]; 0.9 g a.i./ha): 90% | pest or weed control at 0.9 g/ha ([6]; Eleusine indica, post-emergence, 504 h, 0.9 g a.i./ha, read-out: Herbicidal effect [%] on ELEIN 21 DAT): 40% | Herbicidal effect [%] on PHBPU 21 DAT ([9]; 0.9 g a.i./ha): 10%

CCNc1nc(Cl)nc(NC(C)(C)C)n1 [Terbuthylazine, terbuthylazine]
pest or weed control at 50 g/ha ([3]; post-emergence, 240 h, 50 g a.i./ha, read-out: Herbicidal effect [%] on BRAPP 10 DAT): 10% | Herbicidal effect [%] on ECHCG 10 DAT ([5]; 50 g a.i./ha): 10% | Herbicidal effect [%] on ECHCG 21 DAT ([5]; 50 g a.i./ha): 0% | pest or weed control at 50 g/ha [6, 12]: 85% | pest or weed control at 50 g/ha [6, 13]: 70% | pest or weed control at 50 g/ha ([8]; Lolium rigidum, 504 h, 50 g a.i./ha, 21 DAT, read-out: Herbicidal effect [%] on LOLRI 21 DAT): 0%

O=C(O)COc1ccc(Cl)cc1Cl [2,4-D]
Herbicidal effect [%] on AVEFA 10 DAT ([1]; 10 DAT, 40 g a.i./ha): 0% | Herbicidal effect [%] on BRAPP 10 DAT ([3]; 40 g a.i./ha): 0% | Herbicidal effect [%] on BRAPP 21 DAT ([3]; 40 g a.i./ha): 0% | Herbicidal effect [%] on CENCY 21 DAT ([4]; 40 g a.i./ha): 75% | Herbicidal effect [%] on ELEIN 10 DAT ([6]; 40 g a.i./ha): 10%

CS(=O)(=O)c1cc(C(F)(F)F)ccc1C(=O)c1cnoc1C1CC1 [Isoxaflutole, isoxaflutole]
pest or weed control at 4 g/ha [1, 11]: 30% | Herbicidal effect [%] on BIDPI 21 DAT ([2]; 4 g a.i./ha): 40% | Herbicidal effect [%] on ECHCG 10 DAT ([5]; 4 g a.i./ha): 60% | Herbicidal effect [%] on ECHCG 21 DAT ([5]; 4 g a.i./ha): 40% | pest or weed control at 4 g/ha ([7]; Bassia scoparia, post-emergence, 504 h, 4 g a.i./ha, read-out: Herbicidal effect [%] on KCHSC 21 DAT): 30% | Herbicidal effect [%] on PHBPU 21 DAT ([9]; 4 g a.i./ha): 10%

COc1c(Cl)ccc(Cl)c1C(=O)O [Dicamba, dicamba]
Herbicidal effect [%] on BIDPI 10 DAT ([2]; 5 g a.i./ha): 30% | Herbicidal effect [%] on BIDPI 21 DAT ([2]; 5 g a.i./ha): 40% | pest or weed control at 5 g/ha ([3]; post-emergence, 240 h, read-out: Herbicidal effect [%] on BRAPP 10 DAT): 0% | pest or weed control at 5 g/ha ([3]; post-emergence, 504 h, read-out: Herbicidal effect [%] on BRAPP 21 DAT): 0% | Herbicidal effect [%] on ECHCG 10 DAT ([5]; 5 g a.i./ha): 0% | pest or weed control at 5 g/ha ([6]; Eleusine indica, post-emergence, 240 h, read-out: Herbicidal effect [%] on ELEIN 10 DAT): 0% | pest or weed control at 5 g/ha ([6]; Eleusine indica, post-emergence, 504 h, read-out: Herbicidal effect [%] on ELEIN 21 DAT): 0% | Herbicidal effect [%] on KCHSC 10 DAT ([7]; 5 g a.i./ha): 20% | pest or weed control at 5 g/ha [7, 14]: 20% | pest or weed control at 5 g/ha ([8]; Lolium rigidum, 504 h, read-out: Herbicidal effect [%] on LOLRI 21 DAT): 0%

O=C(O)CNCP(=O)(O)O [Glyphosate, glyphosate]
Herbicidal effect [%] on ECHCG 10 DAT ([5]; 30 g a.i./ha): 20% | pest or weed control at 30 g/ha [7, 14]: 0%

CCNc1nc(Cl)nc(NC(C)C)n1 [Atrazine, atrazine]
pest or weed control at 50 g/ha [6, 12]: 30% | pest or weed control at 50 g/ha [6, 13]: 0% | Herbicidal effect [%] on PHBPU 10 DAT ([9]; 50 g a.i./ha, 10 DAT): 30% | Herbicidal effect [%] on PHBPU 21 DAT ([9]; 50 g a.i./ha): 20%
